This experiment deals with V1a (Homo sapiens, UniProt P37288). Briefly: Human vasopression V1a receptor binding assay. Also noted: host or cells: CHO cells (hV1a cell line), whole adherent cells. The conditions noted are these: hV1a cell line (CHO); for IC50: 1 nM 3H-AVP, Table 17, read-out: V1a Binding Affinity (IC50 (nM)); for pKi: Table 18. How it is done:
Human vasopression V1a receptor binding assay. A cell line expressing the human V1a receptor in CHO cells (henceforth referred to as the hV1a cell line) was obtained from Dr. Michael Brownstein, NIMH, Bethesda, Md., USA. The hV1a cDNA sequence is described by Thibonnier et al., Journal of Biological Chemistry, 269, 3304-3310 (1994), and the expression method was the same as described by Morel et al. (1992). The hV1a cell line was grown in alpha-MEM with 10% fetal bovine serum and 250 ug/ml G418 (Gibco, Grand Island, N.Y., USA). For competitive binding assay, hV1a cells were plated into 6-well culture plate at 1:10 dilution from a confluency flask, and maintained in culture for at least two days. Culture medium was then removed, cells were washed with 2 ml binding buffer (25 mM Hepes, 0.25% BSA, 1×DMEM, PH=7.0). To each well, 990 μl binding buffer containing 1 nM 3H-AVP was added, and followed by 10 μl series diluted Example compounds dissolved in DMSO. […] 100 nM cold AVP (Sigma) was used to assess non-specific binding. Cells were incubated for 45 minutes at 37° C., assay mixture was removed and each well was washed three times with PBS (pH=7.4). 1 ml 2% SDS was added per well and plates were let sit for 30 minutes. The whole content in a well was transferred to a scintillation vial. Each well was rinsed with 0.5 ml PBS which was then added to the corresponding vial. Scintillation fluid (Ecoscint, National Diagnostics, Atlanta, Ga.) was then added at 3 ml per vial. Samples were counted in a liquid scintillation counter (Beckman LS3801). IC50 values were calculated by Prism Curve fitting software.
All of the alkanedioic esters and amides exemplified in the foregoing examples dissolved in DMSO were tested in this assay. Binding curves were generated according to methods described by Thibonnier et al. (1994). [^3H]-AVP was added to the hV1a cell cultures followed by 10 fold dilutions of each test compound.

Each structure is given as a SMILES string. pKi: −log10 of the molar value.

Sequence of V1a (P37288 whole entry): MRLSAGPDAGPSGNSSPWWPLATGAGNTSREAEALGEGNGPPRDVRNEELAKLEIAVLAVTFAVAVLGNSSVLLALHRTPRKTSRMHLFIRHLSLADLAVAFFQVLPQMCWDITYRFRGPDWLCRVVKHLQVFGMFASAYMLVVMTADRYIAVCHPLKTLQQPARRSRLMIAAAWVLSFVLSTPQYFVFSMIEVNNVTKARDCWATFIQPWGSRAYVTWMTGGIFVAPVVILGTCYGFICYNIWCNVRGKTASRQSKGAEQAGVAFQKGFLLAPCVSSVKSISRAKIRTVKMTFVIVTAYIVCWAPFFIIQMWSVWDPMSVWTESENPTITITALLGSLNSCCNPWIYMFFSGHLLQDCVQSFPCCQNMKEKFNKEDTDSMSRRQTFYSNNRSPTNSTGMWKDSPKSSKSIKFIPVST

In the case of `O=C(NCc1cc(Cl)cc(Cl)c1)[C@H](CCC(=O)N1CCN(C2CCCCC2)CC1)N1C(=O)[C@@H](N2C(=O)OC[C@@H]2c2ccccc2)[C@H]1/C=C/c1ccccc1` [Example 174], the IC50 turned out to be 1.46 nM and the pKi was 9.05.

With `O=C(NCc1cc(Cl)ccc1Cl)[C@H](CCC(=O)N1CCN(C2CCCCC2)CC1)N1C(=O)[C@@H](N2C(=O)OC[C@@H]2c2ccccc2)[C@H]1/C=C/c1ccccc1` [Example 175], the IC50 is 4.56 nM and the pKi was 8.55.

Turning to `O=C(NCc1cccc(Cl)c1Cl)[C@H](CCC(=O)N1CCN(C2CCCCC2)CC1)N1C(=O)[C@@H](N2C(=O)OC[C@@H]2c2ccccc2)[C@H]1/C=C/c1ccccc1` [Example 176], the IC50 came out at 0.61 nM.

Take `O=C(NCc1cc(C(F)(F)F)ccc1F)[C@H](CCC(=O)N1CCN(C2CCCCC2)CC1)N1C(=O)[C@@H](N2C(=O)OC[C@@H]2c2ccccc2)[C@H]1/C=C/c1ccccc1` [Example 177]: the IC50 was 0.67 nM.

In the case of `O=C(NCc1ccc(F)c(C(F)(F)F)c1)[C@H](CCC(=O)N1CCN(C2CCCCC2)CC1)N1C(=O)[C@@H](N2C(=O)OC[C@@H]2c2ccccc2)[C@H]1/C=C/c1ccccc1` [Example 178], the IC50 was less than 50 nM.

As to `O=C(NCc1cc(F)cc(C(F)(F)F)c1)[C@H](CCC(=O)N1CCN(C2CCCCC2)CC1)N1C(=O)[C@@H](N2C(=O)OC[C@@H]2c2ccccc2)[C@H]1/C=C/c1ccccc1` [Example 179], the IC50 stood at 0.81 nM.

With `O=C(NCc1cccc(C(F)(F)F)c1F)[C@H](CCC(=O)N1CCN(C2CCCCC2)CC1)N1C(=O)[C@@H](N2C(=O)OC[C@@H]2c2ccccc2)[C@H]1/C=C/c1ccccc1` [Example 180], the IC50 turned out to be 0.33 nM.

In the case of `O=C(NCc1ccc(Cl)c(C(F)(F)F)c1)[C@H](CCC(=O)N1CCN(C2CCCCC2)CC1)N1C(=O)[C@@H](N2C(=O)OC[C@@H]2c2ccccc2)[C@H]1/C=C/c1ccccc1` [Example 181], the IC50 is less than 50 nM.

Consider `O=C(NCc1ccccc1C(F)(F)F)[C@H](CCC(=O)N1CCN(C2CCCCC2)CC1)N1C(=O)[C@@H](N2C(=O)OC[C@@H]2c2ccccc2)[C@H]1/C=C/c1ccccc1` [Example 182], for which the IC50 was found to be 1.52 nM.

In the case of `COc1cccc(CNC(=O)[C@H](CCC(=O)N2CCN(C3CCCCC3)CC2)N2C(=O)[C@@H](N3C(=O)OC[C@@H]3c3ccccc3)[C@H]2/C=C/c2ccccc2)c1` [Example 183], the IC50 was less than 10 nM.

Turning to `O=C(NCc1cccc(F)c1)[C@H](CCC(=O)N1CCN(C2CCCCC2)CC1)N1C(=O)[C@@H](N2C(=O)OC[C@@H]2c2ccccc2)[C@H]1/C=C/c1ccccc1` [Example 184], the IC50 is less than 10 nM.

In the case of `O=C(NCc1cc(F)cc(F)c1)[C@H](CCC(=O)N1CCN(C2CCCCC2)CC1)N1C(=O)[C@@H](N2C(=O)OC[C@@H]2c2ccccc2)[C@H]1/C=C/c1ccccc1` [Example 185], the IC50 was 1.27 nM.

On to `O=C(NCc1ccc(F)c(Cl)c1)[C@H](CCC(=O)N1CCN(C2CCCCC2)CC1)N1C(=O)[C@@H](N2C(=O)OC[C@@H]2c2ccccc2)[C@H]1/C=C/c1ccccc1` [Example 186], for which the IC50 is less than 10 nM.

As to `O=C(NCc1cccc(Cl)c1)[C@H](CCC(=O)N1CCN(C2CCCCC2)CC1)N1C(=O)[C@@H](N2C(=O)OC[C@@H]2c2ccccc2)[C@H]1/C=C/c1ccccc1` [Example 187], the IC50 stood at 1 nM.

For `O=C(NCc1cc(C(F)(F)F)cc(C(F)(F)F)c1)[C@H](CCC(=O)N1CCN(C2CCCCC2)CC1)N1C(=O)[C@@H](N2C(=O)OC[C@@H]2c2ccccc2)[C@H]1/C=C/c1ccccc1` [Example 188], the IC50 turned out to be 7.26 nM.

As to `O=C(NCc1cccc([N+](=O)[O-])c1)[C@H](CCC(=O)N1CCN(C2CCCCC2)CC1)N1C(=O)[C@@H](N2C(=O)OC[C@@H]2c2ccccc2)[C@H]1/C=C/c1ccccc1` [Example 189], the IC50 is 1.7 nM and the pKi was 8.98.

Regarding `O=C(NCc1cccc(Br)c1)[C@H](CCC(=O)N1CCN(C2CCCCC2)CC1)N1C(=O)[C@@H](N2C(=O)OC[C@@H]2c2ccccc2)[C@H]1/C=C/c1ccccc1` [Example 190], the IC50 was 0.88 nM and the pKi was 9.27.

As for `O=C(NCc1ccccc1)[C@H](CCC(=O)N1CCN(C2CCCCC2)CC1)N1C(=O)[C@@H](N2C(=O)OC[C@@H]2c2ccccc2)[C@H]1/C=C/c1ccccc1` [Example 191], the IC50 turned out to be 2.92 nM and the pKi was 8.75.

Consider `Cc1ccccc1CNC(=O)[C@H](CCC(=O)N1CCN(C2CCCCC2)CC1)N1C(=O)[C@@H](N2C(=O)OC[C@@H]2c2ccccc2)[C@H]1/C=C/c1ccccc1` [Example 192], for which the IC50 is less than 10 nM.

For `Cc1cccc(CNC(=O)[C@H](CCC(=O)N2CCN(C3CCCCC3)CC2)N2C(=O)[C@@H](N3C(=O)OC[C@@H]3c3ccccc3)[C@H]2/C=C/c2ccccc2)c1` [Example 193], the IC50 amounted to 1.17 nM and the pKi was 9.14.

In the case of `Cc1ccc(CNC(=O)[C@H](CCC(=O)N2CCN(C3CCCCC3)CC2)N2C(=O)[C@@H](N3C(=O)OC[C@@H]3c3ccccc3)[C@H]2/C=C/c2ccccc2)cc1` [Example 194], the IC50 is less than 100 nM.

With `CC(NC(=O)[C@H](CCC(=O)N1CCN(C2CCCCC2)CC1)N1C(=O)[C@@H](N2C(=O)OC[C@@H]2c2ccccc2)[C@H]1/C=C/c1ccccc1)c1ccccc1` (stereo partly shown) [Example 195], the IC50 is less than 50 nM.

Turning to `CN(Cc1ccccc1)C(=O)[C@H](CCC(=O)N1CCN(C2CCCCC2)CC1)N1C(=O)[C@@H](N2C(=O)OC[C@@H]2c2ccccc2)[C@H]1/C=C/c1ccccc1` [Example 196], the IC50 was less than 100 nM.

As to `Cc1cc(C)cc(CNC(=O)[C@H](CCC(=O)N2CCN(C3CCCCC3)CC2)N2C(=O)[C@@H](N3C(=O)OC[C@@H]3c3ccccc3)[C@H]2/C=C/c2ccccc2)c1` [Example 199], the IC50 was less than 10 nM.

In the case of `O=C(NCCc1ccccc1)[C@H](CCC(=O)N1CCN(C2CCCCC2)CC1)N1C(=O)[C@@H](N2C(=O)OC[C@@H]2c2ccccc2)[C@H]1/C=C/c1ccccc1` [Example 200], the IC50 was determined as 5.08 nM and the pKi is 8.51.

Consider `COc1cc(CNC(=O)[C@H](CCC(=O)N2CCN(C3CCCCC3)CC2)N2C(=O)[C@@H](N3C(=O)OC[C@@H]3c3ccccc3)[C@H]2/C=C/c2ccccc2)cc(OC)c1` [Example 201], for which the IC50 was found to be 10.5 nM and the pKi was 8.19.

Regarding `COc1cccc([C@H](C)NC(=O)[C@H](CCC(=O)N2CCN(C3CCCCC3)CC2)N2C(=O)[C@@H](N3C(=O)OC[C@@H]3c3ccccc3)[C@H]2/C=C/c2ccccc2)c1` [Example 203], the IC50 amounted to 2.46 nM and the pKi was 8.82.

On to `CC(C)(NC(=O)[C@H](CCC(=O)N1CCN(C2CCCCC2)CC1)N1C(=O)[C@@H](N2C(=O)OC[C@@H]2c2ccccc2)[C@H]1/C=C/c1ccccc1)c1ccccc1` [Example 204], for which the IC50 was 6 nM and the pKi is 8.43.

With `CN(Cc1cccc(C(F)(F)F)c1)C(=O)[C@H](CCC(=O)N1CCN(C2CCCCC2)CC1)N1C(=O)[C@@H](N2C(=O)OC[C@@H]2c2ccccc2)[C@H]1/C=C/c1ccccc1` [Example 205], the IC50 was 0.34 nM and the pKi is 9.68.

As to `C[C@H](NC(=O)[C@H](CCC(=O)N1CCN(C2CCCCC2)CC1)N1C(=O)[C@@H](N2C(=O)OC[C@@H]2c2ccccc2)[C@H]1/C=C/c1ccccc1)c1ccccc1` [Example 206], the IC50 came out at 1.58 nM and the pKi is 9.01.

With `O=C(NC1(c2ccccc2)CC1)[C@H](CCC(=O)N1CCN(C2CCCCC2)CC1)N1C(=O)[C@@H](N2C(=O)OC[C@@H]2c2ccccc2)[C@H]1/C=C/c1ccccc1` [Example 207], the half-inhibitory concentration (IC50) amounted to 4.48 nM and the pKi was 8.56.

Turning to `O=C(NCc1ccccn1)[C@H](CCC(=O)N1CCN(C2CCCCC2)CC1)N1C(=O)[C@@H](N2C(=O)OC[C@@H]2c2ccccc2)[C@H]1/C=C/c1ccccc1` [Example 208], the IC50 was 16.3 nM and the pKi was 8.00.

For `O=C(NCc1cccnc1)[C@H](CCC(=O)N1CCN(C2CCCCC2)CC1)N1C(=O)[C@@H](N2C(=O)OC[C@@H]2c2ccccc2)[C@H]1/C=C/c1ccccc1` [Example 209], the IC50 is 16 nM and the pKi was 8.01.

Regarding `O=C(NCc1ccncc1)[C@H](CCC(=O)N1CCN(C2CCCCC2)CC1)N1C(=O)[C@@H](N2C(=O)OC[C@@H]2c2ccccc2)[C@H]1/C=C/c1ccccc1` [Example 210], the IC50 is 29.5 nM and the pKi is 7.74.

As for `O=C(NCc1ccco1)[C@H](CCC(=O)N1CCN(C2CCCCC2)CC1)N1C(=O)[C@@H](N2C(=O)OC[C@@H]2c2ccccc2)[C@H]1/C=C/c1ccccc1` [Example 211], the IC50 amounted to 5.37 nM and the pKi was 8.48.

By IC50 is commonly meant the midpoint of a concentration-inhibition curve. A word on the pKi: it is −log10 of the Ki, conventionally taken in molar units. Low values mean a high Ki, high ones a low Ki.

(Values after patent US9597314B2, “Beta-lactamylalkanoic acids for treating premenstrual disorders” (AZEVAN PHARMACEUTICALS, INC., priority 2005, dated 2017).)
